Experimental data published in patent US20250206773A1, “FORMS AND COMPOSITIONS OF SODIUM CHENODEOXYCHOLATE” (Syntis Bio, Inc., priority 2022, published 2025).
Like-named read-outs stand apart in the source and are kept apart here.

What was measured:
[1] = Polymorph screening: solvent drop grinding; type: physicochemical; conditions: grinding 10 min. at RT
Procedure: Around 20 mg of NaCDC Form B was ground together with 10 μL aliquots of the corresponding solvent for 10 minutes at RT using an agate mortar with pestle. When total evaporation of the solvent was observed, another aliquot of 10 μL solvent was added and this procedure was repeated until experiment completion time. All solids were analyzed by XRPD. For the experiments where phase transformation was observed via XRPD, additional analyses of TG/DSC and/or HPLC were performed.

[2] = Dynamic vapor sorption (DVS) hygroscopicity; type: physicochemical; conditions: 25° C.
Procedure: DVS measurements were performed with a SMS—DVS Intrinsic. The sample size was about 50 mg, accurately weighed. The measurement was performed at 25° C., the relative humidity (RH) range investigated was 40-90-0-90% RH with 10% RH steps. After each RH change, the mass of the sample was allowed to stabilize (waiting time 10 to 60 minutes, stabilization criterion ≤0.002 g for 10 minutes). The hygroscopicity of the sample was calculated as follows: [formula] • where: • W1: weight of sample at the start of the experiment (25° C. and 40% RH) • W2: weight of sample at 25° C. and 80% RH in the first sorption cycle High Pressure Liquid Chromatography (HPLC)

[3] = Polymorph screening: slow evaporation; type: physicochemical
Procedure: Five stock solutions (with MeOH, water, 2,2,2-trifluoroethanol, MeOH:EtOAc (1:1 v/v) and MeOH:acetone (1:1 v/v)) were prepared with NaCDC Form B at RT. The final concentration of each solution was near that obtained from the Solubility Studies described in Example 8. Around 19-23 mg of NaCDC Form B was weighed into 1.6 mL HPLC vials (or 8 mL flask in the case of stock solutions with MeOH:EtOAc and MeOH:acetone) and dissolved in appropriate solvents at RT. In the case of the stock solution with water, around 40 mg NaCDC Form B was used. The experiments were kept at RT for 1 h with stirring (500 rpm) and then the solutions were filtered with 0.45 μm PTFE filters. During filtration of the stock solution with water, a foaming phenomenon was observed, and therefore, filtration was performed slowly and in several steps. The filtered solutions were then evaporated slowly under atmospheric pressure at 25° C. (experiments EV01-05) or at 50° C. (experiments EV06-09). After complete evaporation of the solvent, the solids were recovered and analyzed by XRPD. Depending on the results obtained from the XRPD analysis and also material availability, some experiments were analyzed by HPLC and TG/DSC.

[4] = Polymorph screening: slurry with sonication; type: physicochemical; conditions: sonicated 15 minutes then 5° C. for 30 minutes, 6 cycles
Procedure: Around 15 mg of NaCDC Form B was weighed into HPLC vials and 0.4 mL of corresponding solvents were added at RT. The slurries were sonicated for 15 minutes and then left to cool at 5° C. for 30 minutes—this cycle was repeated 6 times. At the end of the sixth cycle, all experiments were air-dried on filter paper and the recovered solids were analyzed by XRPD. Based on the XRPD data, some experiments were analyzed by HPLC.

[5] = type: physicochemical; conditions: pH 7.4
Procedure: Solubility curve measurements of NaCDC Form A and Form B were performed using a Crystal16 automatic crystallizer (Technobis Crystallization Systems), having an array of 16 microreactors equipped with turbidimeters for the determination of clear and cloud points. Samples of four different concentrations for each crystalline form were prepared by weighing accurately different amounts of each sample and adding 1000 μL of phosphate buffer (pH 7.4) to each vial. The suspensions thus obtained were stirred using a magnetic stirrer and heated from 0° C. to 90° C. at 0.5° C./min. The clear point for each sample was determined and plotted to obtain a crystallization curve (FIG. 13).

[6] = Polymorph screening: vapor diffusion onto solids; type: physicochemical
Procedure: Around 20 mg of NaCDC Form B were weighed into 1.6 mL HPLC vials. Each of the aforementioned vials was inserted individually into 40 mL vessels containing initially 0.5 mL of the corresponding solvent. The vessels were isolated from light and atmosphere and allowed to stand for 12 days, in a closed cabinet at 25° C. or in an oven at 50° C. After the experimental time, the majority of the samples remained solids/wet solids (experiments VDS02-12), which were harvested and analyzed by XRPD. […] All solids were analyzed by XRPD, and depending on the results obtained, some experiments were also analyzed by HPLC and TG/DSC.

[7] = type: physicochemical; conditions: RT
Procedure: HPLC analysis was carried out on an Agilent 1260 Infinity chromatograph, using a Hichrom C18 column 100×4.6 mm, 3.5 m, at 40° C. Method details were as follows: [table] Photostability of NaCDC Form B was evaluated by exposing it in solid state and in MeOH solutions to UV 254 nm light for 48 hours in clear, amber, and aluminum foil wrapped vials. The solutions were prepared by weighing around 10 mg NaCDC Form B and mixing it with 500 μL MeOH. The solids and solutions were sampled after 48 hours and analyzed by HPLC, in order to assess degradation. In parallel, XRPD analysis was performed on the recovered solids.

[8] = EV07, 2,2,2-Trifluoroethanol (TFE) 50.88 mg/mL, solids after 4 days at 50° C. and atm. pres.

HPLC purity (%) at 212 nm ([1]; SDGR01, Ethanol (EtOH) 140 μL): 83.36% | HPLC purity (%) at 212 nm ([1]; SDGR02, 2-Propanol 80 μL): 81.26% | HPLC purity (%) at 212 nm ([1]; SDGR03, 2,2,2-Trifluoroethanol (TFE) 90 μL): 90.87% | XRPD ([1]; SDGR04, Diisopropyl ether 160 μL): SM, l.c. | HPLC purity (%) at 212 nm ([1]; SDGR05, MeOH:EtOAc (1:1 v/v) 260 μL): 82.04% | HPLC purity (%) at 212 nm ([1]; SDGR06, MeOH:Acetone (1:1 v/v) 240 μL): 85.56% | HPLC purity (%) at 212 nm ([1]; SDGR07, EtOH:MeCN (1:1 v/v) 190 μL): 86.54% | HPLC purity (%) at 212 nm ([1]; SDGR08, EtOH:n-Heptane (1:1 v/v) 220 μL): 90.36% | hygroscopicity by DVS [2]: slightly hygroscopic | weight change in the first sorption cycle (DVS) ([2]; 40% RH to 80% RH): 0.8% | HPLC purity (%) at 212 nm ([3]; EV01, Methanol (MeOH) 100.80 mg/mL, solids after 4 days at 25-30° C. and atm. pres.): 91.70% | HPLC purity (%) at 212 nm ([3]; EV02, Water (H2O) 204.39 mg/mL, solids after 5 days at 25-30° C. and atm. pres.): 93.71% | HPLC purity (%) at 212 nm ([3]; EV03, 2,2,2-Trifluoroethanol (TFE) 50.88 mg/mL, solids after 7 days at 25-30° C. and atm. pres.): 88.27% | HPLC purity (%) at 212 nm ([3]; EV04, MeOH:EtOAc (1:1 v/v) 20.49 mg/mL, solids after 4 days at 25-30° C. and atm. pres.): 86.46% | HPLC purity (%) at 212 nm ([3]; EV05, MeOH:Acetone (1:1 v/v) 20.19 mg/mL, solids after 4 days at 25-30° C. and atm. pres.): 90.22% | HPLC purity (%) at 212 nm ([3]; EV06, Water (H2O) 204.39 mg/mL, solids after several hours (overnight) at 50° C. and atm. pres.): 93.24% | HPLC purity (%) at 212 nm [3, 8]: 91.69% | XRPD [3, 8]: S4 + SM, P.O. | HPLC purity (%) at 212 nm ([3]; EV08, MeOH:EtOAc (1:1 v/v) 20.49 mg/mL, solids after several hours (overnight) at 50° C. and atm. pres.): 71.43% | HPLC purity (%) at 212 nm ([3]; EV09, MeOH:Acetone (1:1 v/v) 20.19 mg/mL, solids after 4 days at 50° C. and atm. pres.): 87.00% | HPLC purity (%) at 212 nm ([4]; SLS03, Ethyl acetate (EtOAc)): 90.42% | HPLC purity (%) at 212 nm ([4]; SLS08, EtOH:MeCN (1:1 v/v)): 79.23% | HPLC purity (%) at 212 nm ([4]; SLS09, EtOH:n-Heptane (1:1 v/v)): 89.68% | solubility compared to NaCDC Form A (solubility curve) [5]: slightly higher solubility | HPLC purity (%) at 212 nm ([6]; VDS01, Methanol (MeOH) vapor, 25° C., 12 days, fine suspension, evap. at 30° C., 21 mbar, overnight): 89.99% | XRPD ([6]; VDS03, Ethyl acetate (EtOAc) vapor, diffusion at 25° C. after 12 days): SM, P.O. | HPLC purity (%) at 212 nm ([6]; VDS05, Ethanol (EtOH) vapor, diffusion at 50° C. after 12 days): 92.11% | XRPD ([6]; VDS06, 2-Propanol (2-PrOH) vapor, diffusion at 50° C. after 12 days): SM, P.O. | XRPD ([6]; VDS08, Diisopropyl ether vapor, diffusion at 50° C. after 12 days): SM, P.O. | HPLC purity (%) at 212 nm ([6]; VDS09, 2,2,2-Trifluoroethanol (TFE) vapor, diffusion at 50° C. after 12 days, slurry air-dried on filter paper): 90.89% | XRPD ([6]; VDS11, Acetonitrile (MeCN) vapor, diffusion at 50° C. after 12 days): SM, P.O. | HPLC purity (%) at 212 nm ([6]; VDS12, Methyl ethyl ketone (MEK) vapor, diffusion at 50° C. after 12 days): 93.65% | HPLC (%) at 212 nm, after 48h ([7]; ST01: UV 254 nm, solid, clear vial): 94.4% | HPLC (%) at 212 nm, after 48h ([7]; ST02: UV 254 nm, solid, amber vial): 95.0% | HPLC (%) at 212 nm, after 48h ([7]; ST03: UV 254 nm, solid, control - dark): 95.4% | HPLC (%) at 212 nm, after 48h ([7]; ST04: UV 254 nm, MeOH solution, clear vial): 91.4% | HPLC (%) at 212 nm, after 48h ([7]; ST05: UV 254 nm, MeOH solution, amber vial): 91.0% | HPLC (%) at 212 nm, after 48h ([7]; ST06: UV 254 nm, MeOH solution, control - dark): 94.2%
Compound: C[C@H](CCC(=O)[O-])[C@H]1CC[C@H]2[C@@H]3[C@H](O)C[C@@H]4C[C@H](O)CC[C@]4(C)[C@H]3CC[C@]12C.[Na+] [Form B, sodium chenodeoxycholate]
